What was measured:
[1] = target: T1, ATR kinase (full-length ATR) (Homo sapiens, UniProt Q13535); assay: ATR Inhibition Assay (radioactive-phosphate incorporation); type: biochemical; conditions: Ki(app); 5 nM full-length ATR, 10 μM ATP, 800 μM target peptide, 25° C.
T1 construct: in the presence of 5 nM full-length ATR
Experimental: Compounds were screened for their ability to inhibit ATR kinase using a radioactive-phosphate incorporation assay. Assays were carried out in a mixture of 50 mM Tris/HCl (pH 7.5), 10 mM MgCl2 and 1 mM DTT. Final substrate concentrations were 10 μM [γ-33P]ATP (3 mCi 33P ATP/mmol ATP, Perkin Elmer) and 800 μM target peptide (ASELPASQPQPFSAKKK (SEQ. ID NO: 1)).
Assays were carried out at 25° C. in the presence of 5 nM full-length ATR. An assay stock buffer solution was prepared containing all of the reagents listed above, with the exception of ATP and the test compound of interest. 13.5 μL of the stock solution was placed in a 96 well plate followed by addition of 2 μL of DMSO stock containing serial dilutions of the test compound (typically starting from a final concentration of 15 μM with 3-fold serial dilutions) in duplicate (final DMSO concentration 7%). The plate was pre-incubated for 10 minutes at 25° C. and the reaction initiated by addition of 15 μL [γ-33P]ATP (final concentration 10 μM).
The reaction was stopped after […] by the addition of 30 μL 0.1M phosphoric acid containing 2 mM ATP. A multiscreen phosphocellulose filter 96-well plate (Millipore, Cat no. MAPHN0B50) was pretreated with 100 μL 0.2M phosphoric acid prior to the addition of 45 μL of the stopped assay mixture. The plate was washed with 5×200 μL 0.2M phosphoric acid. After drying, 100 μL Optiphase ‘SuperMix’ liquid scintillation cocktail (Perkin Elmer) was added to the well prior to scintillation counting (1450 Microbeta Liquid Scintillation Counter, Wallac).
After removing mean background values for all of the data points, Ki(app) data were calculated from non-linear regression analysis of the initial rate data using the Prism software package (GraphPad Prism version 3.0cx for Macintosh, GraphPad Software, San Diego Calif., USA).

[2] = system: HCT116 colorectal cancer cells; assay: Cisplatin Sensitization Assay (96 h cell viability MTS); type: cell-based; conditions: concentration of compound required to reduce the IC50 of Cisplatin alone by at least 3-fold; HCT116, 96 h MTS
Experimental: Compounds can be screened for their ability to sensitize HCT116 colorectal cancer cells to Cisplatin using a 96 h cell viability (MTS) assay. […] Compounds and Cisplatin are then both added simultaneously to the cell media in 2-fold serial dilutions from a top final concentration of 10 μM as a full matrix of concentrations in a final cell volume of 200 μl, and the cells are then incubated at 37° C. in 5% CO2. After 96 h, 40 μl of MTS reagent (Promega G358a) is added to each well and the cells are incubated for 1 h at 37° C. in 5% CO2. Finally, absorbance is measured at 490 nm using a SpectraMax Plus 384 reader (Molecular Devices) and the concentration of compound required to reduce the IC50 of Cisplatin alone by at least 3-fold (to 1 decimal place) can be reported.

T1 sequence (Q13535 whole entry): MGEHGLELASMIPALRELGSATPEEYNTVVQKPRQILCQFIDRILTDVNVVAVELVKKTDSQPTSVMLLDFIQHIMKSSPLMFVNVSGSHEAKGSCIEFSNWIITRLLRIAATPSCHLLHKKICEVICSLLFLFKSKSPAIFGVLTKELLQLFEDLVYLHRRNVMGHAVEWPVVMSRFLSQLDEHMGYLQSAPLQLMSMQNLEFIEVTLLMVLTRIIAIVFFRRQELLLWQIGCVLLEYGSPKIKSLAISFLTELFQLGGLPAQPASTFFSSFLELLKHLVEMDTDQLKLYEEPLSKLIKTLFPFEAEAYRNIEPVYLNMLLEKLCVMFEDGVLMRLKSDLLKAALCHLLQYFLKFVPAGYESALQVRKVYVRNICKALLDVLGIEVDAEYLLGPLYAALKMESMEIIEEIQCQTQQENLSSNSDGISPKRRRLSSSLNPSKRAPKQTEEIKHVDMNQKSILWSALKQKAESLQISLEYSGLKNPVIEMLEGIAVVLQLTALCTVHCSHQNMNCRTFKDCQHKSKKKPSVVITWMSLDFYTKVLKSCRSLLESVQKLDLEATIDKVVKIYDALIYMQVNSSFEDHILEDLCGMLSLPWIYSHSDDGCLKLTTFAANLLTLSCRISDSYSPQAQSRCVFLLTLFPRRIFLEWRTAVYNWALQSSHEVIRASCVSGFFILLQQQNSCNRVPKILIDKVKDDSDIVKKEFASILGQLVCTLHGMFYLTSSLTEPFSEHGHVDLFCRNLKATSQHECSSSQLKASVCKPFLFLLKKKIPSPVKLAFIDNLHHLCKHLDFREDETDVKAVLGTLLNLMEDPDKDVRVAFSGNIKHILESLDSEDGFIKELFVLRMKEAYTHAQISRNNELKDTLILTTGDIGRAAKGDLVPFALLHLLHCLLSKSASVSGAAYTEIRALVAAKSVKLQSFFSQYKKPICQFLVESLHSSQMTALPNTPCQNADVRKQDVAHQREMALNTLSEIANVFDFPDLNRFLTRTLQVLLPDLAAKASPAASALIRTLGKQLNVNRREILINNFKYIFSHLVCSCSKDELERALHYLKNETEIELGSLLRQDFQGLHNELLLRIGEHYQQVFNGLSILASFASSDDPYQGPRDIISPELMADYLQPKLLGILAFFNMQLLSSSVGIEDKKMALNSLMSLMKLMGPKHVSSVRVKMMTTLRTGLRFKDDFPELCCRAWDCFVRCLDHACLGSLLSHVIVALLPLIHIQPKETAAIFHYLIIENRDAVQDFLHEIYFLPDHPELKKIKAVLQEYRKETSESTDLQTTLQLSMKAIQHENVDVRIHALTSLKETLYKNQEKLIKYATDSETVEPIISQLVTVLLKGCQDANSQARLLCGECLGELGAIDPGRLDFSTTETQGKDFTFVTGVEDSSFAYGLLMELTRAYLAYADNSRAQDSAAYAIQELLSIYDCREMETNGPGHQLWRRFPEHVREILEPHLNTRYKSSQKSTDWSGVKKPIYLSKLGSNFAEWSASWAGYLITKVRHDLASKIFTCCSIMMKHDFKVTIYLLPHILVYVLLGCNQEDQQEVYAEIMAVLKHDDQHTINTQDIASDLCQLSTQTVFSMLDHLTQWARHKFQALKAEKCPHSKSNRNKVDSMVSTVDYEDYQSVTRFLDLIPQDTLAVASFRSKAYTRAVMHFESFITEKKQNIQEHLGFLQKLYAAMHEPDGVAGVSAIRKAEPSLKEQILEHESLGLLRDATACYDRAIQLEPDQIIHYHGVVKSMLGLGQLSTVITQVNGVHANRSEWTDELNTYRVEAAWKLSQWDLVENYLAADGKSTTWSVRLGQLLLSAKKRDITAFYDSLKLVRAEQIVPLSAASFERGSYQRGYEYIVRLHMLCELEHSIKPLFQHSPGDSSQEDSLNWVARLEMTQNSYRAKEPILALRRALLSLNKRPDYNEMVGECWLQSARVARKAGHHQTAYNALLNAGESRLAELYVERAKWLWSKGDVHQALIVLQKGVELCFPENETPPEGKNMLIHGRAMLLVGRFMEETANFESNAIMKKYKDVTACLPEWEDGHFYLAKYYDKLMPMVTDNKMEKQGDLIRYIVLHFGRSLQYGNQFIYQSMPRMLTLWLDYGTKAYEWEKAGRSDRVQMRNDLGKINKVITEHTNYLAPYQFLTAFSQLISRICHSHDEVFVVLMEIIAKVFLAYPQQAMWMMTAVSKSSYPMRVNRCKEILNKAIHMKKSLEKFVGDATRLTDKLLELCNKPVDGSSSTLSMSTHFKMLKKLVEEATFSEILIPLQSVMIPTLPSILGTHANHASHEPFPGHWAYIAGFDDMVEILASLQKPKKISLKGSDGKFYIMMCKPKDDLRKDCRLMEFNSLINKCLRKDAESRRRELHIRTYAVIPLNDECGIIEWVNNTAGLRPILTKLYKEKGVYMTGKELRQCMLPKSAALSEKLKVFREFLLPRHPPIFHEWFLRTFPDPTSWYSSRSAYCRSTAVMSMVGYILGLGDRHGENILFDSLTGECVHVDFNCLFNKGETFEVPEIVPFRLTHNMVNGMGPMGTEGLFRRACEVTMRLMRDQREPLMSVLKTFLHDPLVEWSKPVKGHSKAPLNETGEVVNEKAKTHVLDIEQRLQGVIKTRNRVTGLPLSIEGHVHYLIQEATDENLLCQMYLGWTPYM

| Ki [1] [µM] | SMILES | Cisplatin Sensitization Assay [2] |
| --- | --- | --- |
| 0.01 to 1 | Nc1nn2cc(F)cnc2c1C(=O)Nc1cnncc1N1CCOCC1 [I-B-12, 2-amino-6-fluoro-N-(5-morpholinopyridazin-4-yl)pyrazolo[1,5-a]pyrimidine-3-carboxamide] | ++ (Compounds with a Cisplatin sensitization value >0.02 μM but <0.2 μM are marked with “++.”) |
| 0.01 to 1 | CN(C)[C@H]1CC[C@H](Oc2ncncc2NC(=O)c2c(N)nn3ccc(C(F)(F)F)nc23)CC1 [I-A-13, 2-amino-N-(4-(((1r,4r)-4-(dimethylamino)cyclohexyl)oxy)pyrimidin-5-yl)-5-(trifluoromethyl)pyrazolo[1,5-a]pyrimidine-3-carboxamide] | ++ (Compounds with a Cisplatin sensitization value >0.02 μM but <0.2 μM are marked with “++.”) |
| 1 to 5 | CC(C)Oc1ncncc1NC(=O)c1c(N)nn2ccc(OCCN(C)C)nc12 [I-A-15, 2-amino-5-(2-(dimethylamino)ethoxy)-N-(4-isopropoxypyrimidin-5-yl)pyrazolo[1,5-a]pyrimidine-3-carboxamide] | + (Compounds with a Cisplatin sensitization value >0.2 μM but <5 μM are marked with “+.”) |
| < 0.01 | N#CCc1cnc2c(C(=O)Nc3cncn3Cc3ccccc3)c(N)nn2c1 [I-D-1, 2-amino-N-(1-benzyl-1H-imidazol-5-yl)-6-(cyanomethyl)pyrazolo[1,5-a]pyrimidine-3-carboxamide] | +++ (Compounds with a Cisplatin sensitization value of <0.02 μM are marked with “+++.”) |
| 0.01 to 1 | Cc1cc(-c2c(C)nsc2NC(=O)c2c(N)nn3cc(F)cnc23)ccn1 [I-E-13, 2-amino-6-fluoro-N-(3-methyl-4-(2-methylpyridin-4-yl)isothiazol-5-yl)pyrazolo[1,5-a]pyrimidine-3-carboxamide] | +++ (Compounds with a Cisplatin sensitization value of <0.02 μM are marked with “+++.”) |
| 0.01 to 1 | Nc1nn2cc(F)cnc2c1C(=O)Nc1cnncc1N1CCC(CN2CCOCC2)CC1 [I-B-8, 2-amino-6-fluoro-N-(5-(4-(morpholinomethyl)piperidin-1-yl)pyridazin-4-yl)pyrazolo[1,5-a]pyrimidine-3-carboxamide] | ++ (Compounds with a Cisplatin sensitization value >0.02 μM but <0.2 μM are marked with “++.”) |
| 0.01 to 1 | Cc1nsc(NC(=O)c2c(N)nn3cc(F)cnc23)c1CN1CCOCC1 [I-E-15, 2-amino-6-fluoro-N-(3-methyl-4-(morpholinomethyl)isothiazol-5-yl)pyrazolo[1,5-a]pyrimidine-3-carboxamide] | +++ (Compounds with a Cisplatin sensitization value of <0.02 μM are marked with “+++.”) |
| 0.01 to 1 | CS(=O)(=O)C1CCN(c2cnncc2NC(=O)c2c(N)nn3cc(F)cnc23)CC1 [I-B-23, 2-amino-6-fluoro-N-(5-(4-(methylsulfonyl)piperidin-1-yl)pyridazin-4-yl)pyrazolo[1,5-a]pyrimidine-3-carboxamide] | ++ (Compounds with a Cisplatin sensitization value >0.02 μM but <0.2 μM are marked with “++.”) |
| 0.01 to 1 | CN1CCN(c2cnccc2NC(=O)c2c(N)nn3cc(F)cnc23)CC1 [I-C-2, 2-amino-6-fluoro-N-(3-(4-methylpiperazin-1-yl)pyridin-4-yl)pyrazolo[1,5-a]pyrimidine-3-carboxamide] | ++ (Compounds with a Cisplatin sensitization value >0.02 μM but <0.2 μM are marked with “++.”) |
| 0.01 to 1 | Nc1nn2cc(F)cnc2c1C(=O)Nc1cnncc1N1CCN(C2COC2)CC1 [I-B-2, 2-amino-6-fluoro-N-(5-(4-(oxetan-3-yl)piperazin-1-yl)pyridazin-4-yl)pyrazolo[1,5-a]pyrimidine-3-carboxamide] | ++ (Compounds with a Cisplatin sensitization value >0.02 μM but <0.2 μM are marked with “++.”) |
| < 0.01 | Nc1nn2cc(F)cnc2c1C(=O)Nc1cnncc1N1CCC(C(=O)N2CC(F)C2)CC1 [I-B-22, 2-amino-6-fluoro-N-(5-(4-(3-fluoroazetidine-1-carbonyl)piperidin-1-yl)pyridazin-4-yl)pyrazolo[1,5-a]pyrimidine-3-carboxamide] | +++ (Compounds with a Cisplatin sensitization value of <0.02 μM are marked with “+++.”) |
| < 0.01 | CS(=O)(=O)C1CCN(c2cnccc2NC(=O)c2c(N)nn3cc(F)cnc23)CC1 [I-C-10, 2-amino-6-fluoro-N-(3-(4-(methylsulfonyl)piperidin-1-yl)pyridin-4-yl)pyrazolo[1,5-a]pyrimidine-3-carboxamide] | +++ (Compounds with a Cisplatin sensitization value of <0.02 μM are marked with “+++.”) |
| 0.01 to 1 | CN(C)[C@H]1CC[C@H](Oc2ncncc2NC(=O)c2c(N)nn3cc(F)cnc23)CC1 [I-A-12, 2-amino-N-(4-(((1r,4r)-4-(dimethylamino)cyclohexyl)oxy)pyrimidin-5-yl)-6-fluoropyrazolo[1,5-a]pyrimidine-3-carboxamide] | ++ (Compounds with a Cisplatin sensitization value >0.02 μM but <0.2 μM are marked with “++.”) |
| 0.01 to 1 | Nc1nn2cc(F)cnc2c1C(=O)Nc1cnncc1N1CCC(F)CC1 [I-B-20, 2-amino-6-fluoro-N-(5-(4-fluoropiperidin-1-yl)pyridazin-4-yl)pyrazolo[1,5-a]pyrimidine-3-carboxamide] | +++ (Compounds with a Cisplatin sensitization value of <0.02 μM are marked with “+++.”) |
| 0.01 to 1 | Cc1nn(C)cc1-c1c(C)nsc1NC(=O)c1c(N)nn2cc(F)cnc12 [I-E-18, 2-amino-N-(4-(1,3-dimethyl-1H-pyrazol-4-yl)-3-methylisothiazol-5-yl)-6-fluoropyrazolo[1,5-a]pyrimidine-3-carboxamide] | +++ (Compounds with a Cisplatin sensitization value of <0.02 μM are marked with “+++.”) |
| 0.01 to 1 | Cc1nsc(NC(=O)c2c(N)nn3cc(F)cnc23)c1-c1ccncc1 [I-E-14, 2-amino-6-fluoro-N-(3-methyl-4-(pyridin-4-yl)isothiazol-5-yl)pyrazolo[1,5-a]pyrimidine-3-carboxamide] | +++ (Compounds with a Cisplatin sensitization value of <0.02 μM are marked with “+++.”) |
| 1 to 5 | COc1ncncc1NC(=O)c1c(N)nn2ccc(OCCN(C)C)nc12 [I-A-16, 2-amino-5-(2-(dimethylamino)ethoxy)-N-(4-methoxypyrimidin-5-yl)pyrazolo[1,5-a]pyrimidine-3-carboxamide] | + (Compounds with a Cisplatin sensitization value >0.2 μM but <5 μM are marked with “+.”) |
| 0.01 to 1 | Cc1nsc(NC(=O)c2c(N)nn3cc(F)cnc23)c1-c1cnn(C)c1 [I-E-12, 2-amino-6-fluoro-N-(3-methyl-4-(1-methyl-1H-pyrazol-4-yl)isothiazol-5-yl)pyrazolo[1,5-a]pyrimidine-3-carboxamide] | ++ (Compounds with a Cisplatin sensitization value >0.02 μM but <0.2 μM are marked with “++.”) |
| 0.01 to 1 | Nc1nn2cc(F)cnc2c1C(=O)Nc1cnncc1N1CCN(C2CCOCC2)CC1 [I-B-3, 2-amino-6-fluoro-N-(5-(4-(tetrahydro-2H-pyran-4-yl)piperazin-1-yl)pyridazin-4-yl)pyrazolo[1,5-a]pyrimidine-3-carboxamide] | ++ (Compounds with a Cisplatin sensitization value >0.02 μM but <0.2 μM are marked with “++.”) |
| 0.01 to 1 | Nc1nn2cc(F)cnc2c1C(=O)Nc1cncn1C1CC1 [I-D-3, 2-amino-N-(1-cyclopropyl-1H-imidazol-5-yl)-6-fluoropyrazolo[1,5-a]pyrimidine-3-carboxamide] | +++ (Compounds with a Cisplatin sensitization value of <0.02 μM are marked with “+++.”) |

| SMILES | Ki [1] [µM] | Cisplatin Sensitization Assay [2] |
| --- | --- | --- |
| Nc1nn2cc(F)cnc2c1C(=O)Nc1cncnc1O[C@H]1CN2CCC1CC2 [I-A-3, (R)-2-amino-6-fluoro-N-(4-(quinuclidin-3-yloxy)pyrimidin-5-yl)pyrazolo[1,5-a]pyrimidine-3-carboxamide] | 0.01 to 1 | ++ (Compounds with a Cisplatin sensitization value >0.02 μM but <0.2 μM are marked with “++.”) |

From patent US8957078B2, “Compounds useful as inhibitors of ATR kinase” (Vertex Pharmaceuticals Incorporated, priority 2013, dated 2015)
